US11746109B2, “Crystalline forms of 2-[(2S)-1-azabicyclo[2.2.2]oct-2-yl]-6-(3-methyl-1H-pyrazol-4-yl)thieno[3,2-d]pyrimidin-4(3H)-one hemihydrate” (TAKEDA PHARMACEUTICAL COMPANY LIMITED, priority 2016, dated 2023)

Legend:
Assay type in all cases: physicochemical
[1] = Estimated solubility at 55° C. in recrystallization solvents; conditions: organic solvent or mixture, thermodynamic from solid
Method: Recrystallization of Compound 1 Crystalline Form A was investigated in various solvent conditions. […] One of water, heptane or IPE was added as an anti-solvent to maintain the saturation state. Recrystallization in heptane yielded a sufficient amount of solids for analysis after gradual cooling. […] Crystals obtained from THF, trifluoroethanol, THF/heptane, chloroform/heptane, chloroform/IPE and trifluoroethanol/IPE were characterized as solvates by XRPD and TGA/DSC analysis. Crystals obtained from all other solvents were confirmed to be Compound 1 Crystalline Form A based on XRPD analysis.

[2] = Solubility in 200 mM phosphate buffer (pH 6.8); conditions: for solubility at 20 h: phosphate buffer, pH 6.8, aqueous buffer, thermodynamic from solid; for solubility: 20 hrs, hemihydrate
Method: About 2 mg of Compound 1 Crystalline Form A made in example 2 or Compound 1 Crystalline Form I made in example 3-2 and 2 mL of 200 mM phosphate buffer (pH 6.8) were added into a glass test tube. The test tube was shaken vigorously and incubated at 10° C., 20° C., 30° C. or 40° C. for 20 hrs. After the incubation, the suspension was centrifuged and the supernatant was filtered through a 0.22 μm pore membrane filter. The filtrate solutions were diluted 2-fold with 50 mM sodium perchlorate buffer (pH 2.5)/acetonitrile (1/1, v/v). Concentration was determined by HPLC.

[3] = Solubility in water/DMSO at 60° C.; conditions: for solubility / solubility at 24 h: Water/DMSO at 60° C.; for solubility: hemihydrate; for solubility at 24 h: water/DMSO, 60 °C, organic solvent or mixture, thermodynamic from solid
Method: A solution of DMSO/water with known water content was added to a glass vial and heated to 60° C. Crystals of Compound 1 Crystalline Form I or Compound 1 Crystalline Form A were added to the vial until a suspension was obtained. The suspension was stirred via magnetic stirring and incubated for 24 hrs at 60° C. After incubation, the suspension was filtered at 60° C. 10 μL of the filtrate was sampled and diluted with 990 μL of acetonitrile/water (1/1, v/v). Sample concentration of Compound 1 was determined by HPLC. […] The experimental solubility results are summarized below in Tables 5 and 6.

[4] = Hygroscopicity of crystalline forms
[5] = Chemical and optical stability of crystalline forms on storage
[6] = 60° C./75% relative humidity (open) for at least eight weeks
[7] = 80° C. (closed) for at least eight weeks

SMILES: Cc1[nH]ncc1-c1cc2nc([C@@H]3CC4CCN3CC4)[nH]c(=O)c2s1 [Compound 1 Crystalline Form A, 2-[(2S)-1-azabicyclo[2.2.2]oct-2-yl]-6-(3-methyl-1H-pyrazol-4-yl)thieno[3,2-d]pyrimidin-4(3H)-one hemihydrate]
- solubility ([1]; solvent Acetone): < 2 mg/mL
- solubility ([1]; solvent Acetonitrile): < 2 mg/mL
- solubility ([1]; solvent Chloroform): 2.8 mg/mL
- solubility ([1]; solvent Ethanol): 10.5 mg/mL
- solubility ([1]; solvent Ethyl acetate): < 2 mg/mL
- solubility ([1]; solvent Formamide): 10 mg/mL
- solubility ([1]; solvent IPA): 6.7 mg/mL
- solubility ([1]; solvent MEK): 2.9 mg/mL
- solubility ([1]; solvent Methanol): 33.3 mg/mL
- solubility ([1]; solvent THF): 9.1 mg/mL
- solubility ([1]; solvent Toluene): < 2 mg/mL
- solubility ([1]; solvent Trifluoroethanol): > 100 mg/mL
- solubility at 20 h ([2]; 10 °C): 0.102 mg/mL
- solubility at 20 h ([2]; 20 °C): 0.104 mg/mL
- solubility at 20 h ([2]; 30 °C): 0.115 mg/mL
- solubility at 20 h ([2]; 40 °C): 0.136 mg/mL
- solubility ([3]; 0 % water by volume): 153.8 mg/mL
- solubility ([3]; 6 % water by volume): 73.4 mg/mL
- solubility at 24 h ([3]; 8.5 % water by volume): 51 mg/mL
- solubility at 24 h ([3]; 8.7 % water by volume): 44 mg/mL
- solubility at 24 h ([3]; 9.8 % water by volume): 38.5 mg/mL
- solubility at 24 h ([3]; 10.7 % water by volume): 32.1 mg/mL
- solubility at 24 h ([3]; 11.3 % water by volume): 28.6 mg/mL
- solubility at 24 h ([3]; 11.8 % water by volume): 25.7 mg/mL
- Hygroscopicity ([4]; at 25° C.): not hygroscopic
- Hygroscopicity ([4]; at 40° C.): not hygroscopic
- Chemical and optical stability [5, 6]: chemically and optically stable
- Chemical and optical stability [5, 7]: chemically and optically stable

SMILES: Cc1[nH]ncc1-c1cc2nc([C@@H]3CC4CCN3CC4)[nH]c(=O)c2s1 [Compound 1 Crystalline Form I, 2-[(2S)-1-azabicyclo[2.2.2]oct-2-yl]-6-(3-methyl-1H-pyrazol-4-yl)thieno[3,2-d]pyrimidin-4(3H)-one hemihydrate]
- solubility ([2]; 10 °C): 0.063 mg/mL
- solubility ([2]; 20 °C): 0.071 mg/mL
- solubility ([2]; 30 °C): 0.08 mg/mL
- solubility ([2]; 40 °C): 0.099 mg/mL
- Solubility in water/DMSO relative to Compound 1 Crystalline Form A ([3]; at 60° C. (FIG. 7)): lower
- solubility at 24 h ([3]; 0 % water by volume): 134 mg/mL
- solubility at 24 h ([3]; 3 % water by volume): 108 mg/mL
- solubility at 24 h ([3]; 4 % water by volume): 92.2 mg/mL
- solubility at 24 h ([3]; 4.5 % water by volume): 74.8 mg/mL
- solubility at 24 h ([3]; 6 % water by volume): 65.8 mg/mL
- solubility at 24 h ([3]; 8 % water by volume): 34.8 mg/mL
- Hygroscopicity ([4]; at 25° C.): not hygroscopic
- Hygroscopicity ([4]; at 40° C.): not hygroscopic
- Chemical and optical stability [5, 6]: chemically and optically stable
- Chemical and optical stability [5, 7]: chemically and optically stable
